Results taken from patent US8722052B2, “Vaccinia virus protein A46 peptide and use thereof” (priority 2008, dated 2014).
Ends that are not written are not given here.

Columns and labels:
Mal = target: T1, Mal (Homo sapiens, UniProt P58753); assay: His peptide pulldown of overexpressed Flag-Mal from HEK293_T lysates; format: binding; settings: 25 μM His-peptide, Ni-agarose beads, 2 hr at 4° C.
T1 construct: expressed in transfected cells; host or cells: HEK293_T, lysed in 1% NP-40 buffer
Method: (§1) HEK293_T cells were seeded in 6 well plate (1.5×10^5 cells/ml) 24 hours before transfection with 1 μg/well Flag-Mal and 2 μg/well Flag-TRAM encoding plasmids. The total amount of plasmid DNA transfected into the cells was made up to […] by adding pcDNA. 24 hours post-transfection cells were lysed in 1% NP-40 lysis buffer containing 20 mM imidazole. The experimental lysates were incubated with 25 μM His-A464 peptide ((H-H-H-H-H-H-[…]) (SEQ ID NO. 66) and 40 μL of Ni-agarose beads for 2 hr at 4° C. Control samples were incubated with either beads only or beads and 25 μM His-A467 peptide (H-H-H-H-H-H-[…]) (SEQ ID NO. 67). After incubation beads were washed 5 times in lysis buffer with imidazole. Proteins were resolved by SDS-PAGE, and transferred membranes immunoblotted for Flag. Data is representative of four experiments; and
(§2) HEK293_T cells were seeded in 6 well plates (1.5×10^5 cells/ml) 24 hours before transfection. 8 μl of GeneJuice was mixed with 32 μl of serum-free DMEM (SFM) per transfection and incubated for 5 min at room temperature before adding 1 μg per transfection of Flag-Mal or 2 μg of Flag-TRAM encoding plasmid DNA. GeneJuice/SFM/DNA mixture was then incubated for 15 min at room temperature before adding to the cells. […] The signal was read using Odyssey Infrared Imaging System, LI-COR® Biosciences.

TRAM = target: T2, TRAM (Homo sapiens, UniProt Q86XR7); assay: His peptide pulldown of overexpressed Flag-TRAM from HEK293_T lysates; format: binding; settings: 25 μM His-peptide, Ni-agarose beads, 2 hr at 4° C.
T2 construct: expressed in transfected cells; host or cells: HEK293_T, lysed in 1% NP-40 buffer
T2 sequence (Q86XR7 whole entry): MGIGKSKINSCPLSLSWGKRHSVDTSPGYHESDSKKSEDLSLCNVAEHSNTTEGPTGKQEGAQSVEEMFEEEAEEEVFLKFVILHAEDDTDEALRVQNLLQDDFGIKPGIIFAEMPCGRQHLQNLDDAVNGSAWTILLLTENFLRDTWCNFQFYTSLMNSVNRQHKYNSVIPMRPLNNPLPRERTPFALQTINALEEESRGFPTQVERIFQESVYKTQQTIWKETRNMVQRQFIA
Method: as §1, §2

[1] = peptide solubility (observation)
TLR4 = format: cell-based, human; settings: THP-1; peptide 20 or 40 μM 1 h before 100 ng/ml LPS; 6 h
Chain of TLR4 (O00206 24-839): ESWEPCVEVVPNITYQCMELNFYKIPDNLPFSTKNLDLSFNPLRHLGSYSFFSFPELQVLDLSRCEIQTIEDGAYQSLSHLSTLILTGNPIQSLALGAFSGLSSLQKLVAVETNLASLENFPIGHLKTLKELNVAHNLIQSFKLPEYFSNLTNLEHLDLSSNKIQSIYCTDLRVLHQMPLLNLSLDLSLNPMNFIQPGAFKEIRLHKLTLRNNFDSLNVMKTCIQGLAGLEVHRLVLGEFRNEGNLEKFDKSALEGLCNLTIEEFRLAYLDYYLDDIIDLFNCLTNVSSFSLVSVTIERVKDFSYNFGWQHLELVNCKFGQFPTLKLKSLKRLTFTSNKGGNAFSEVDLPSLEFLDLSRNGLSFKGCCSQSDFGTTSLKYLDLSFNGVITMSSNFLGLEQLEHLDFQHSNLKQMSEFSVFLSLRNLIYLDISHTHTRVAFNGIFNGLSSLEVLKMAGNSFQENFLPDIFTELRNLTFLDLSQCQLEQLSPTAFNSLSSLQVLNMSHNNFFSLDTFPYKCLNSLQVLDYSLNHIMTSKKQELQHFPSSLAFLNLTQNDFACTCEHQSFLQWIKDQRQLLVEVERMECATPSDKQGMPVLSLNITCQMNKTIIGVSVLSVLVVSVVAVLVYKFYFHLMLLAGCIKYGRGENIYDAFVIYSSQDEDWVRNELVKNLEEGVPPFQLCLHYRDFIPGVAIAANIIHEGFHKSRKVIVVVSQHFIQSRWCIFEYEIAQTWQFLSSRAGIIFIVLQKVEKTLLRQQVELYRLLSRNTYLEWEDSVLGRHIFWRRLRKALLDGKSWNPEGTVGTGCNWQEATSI
Chain of TLR4 (Q9Y6Y9 17-160 partner limits assumed): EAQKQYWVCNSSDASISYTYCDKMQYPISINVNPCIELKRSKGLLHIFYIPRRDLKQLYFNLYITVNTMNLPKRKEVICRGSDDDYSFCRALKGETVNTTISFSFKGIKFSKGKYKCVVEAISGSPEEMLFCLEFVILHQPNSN

TLRs = assay: TLR responses in human cells; format: cell-based
[2] = test system: bacterial-induced inflammation; settings: murine model; McCoy et al, 2005; cited from earlier work
[3] = test system: LPS-induced inflammatory mediators; settings: Tsung et al, 2007; cited from earlier work

T1 sequence (P58753 whole entry): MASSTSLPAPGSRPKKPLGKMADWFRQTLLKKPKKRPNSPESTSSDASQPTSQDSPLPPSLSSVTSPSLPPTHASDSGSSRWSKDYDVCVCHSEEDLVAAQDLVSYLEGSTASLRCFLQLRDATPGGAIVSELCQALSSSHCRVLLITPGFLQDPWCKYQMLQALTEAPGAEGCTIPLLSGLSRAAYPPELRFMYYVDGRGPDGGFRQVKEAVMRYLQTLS

Substance: H-H-H-H-H-H-KYSFKLILAEY (HHHHHHKYSFKLILAEY) [His-A464]
- pulldown of overexpressed Mal (Mal): capable of pulling down overexpressed Mal or TRAM
- pulldown of overexpressed TRAM (TRAM): capable of pulling down overexpressed Mal or TRAM

Substance: H-H-H-H-H-H-RNTISGNIYSA [His-A467]
- pulldown of overexpressed Mal (Mal): not
- pulldown of overexpressed TRAM (TRAM): not

Substance: KYSFKLILAAYRRRRRRRRR [Peptide E10A, KYSFKLILAAY-9R]
- solubility of the peptide [1]: insoluble

Substance: P13 (DIVKLTVYDCIRRRRRRRRR) [Peptide P13]
- inhibition of LPS-induced TNFα production (TLR4): even at a high dose of 40 μM, was ineffective at inhibiting TLR4
- ability to block TLR responses in human cells (TLRs): unable to block TLR responses in human cells
- reduction of in vivo bacterial-induced inflammation [2]: can reduce
- reduction of LPS-induced inflammatory mediators in mice [3]: can reduce
